We go through one compound from PMC10782225 (The FASEB Journal, 2023).

One assay has as its target T1, human α7β2‐nAChR (Homo sapiens, UniProt P17787+P36544).
T1 construct: expressed in transfected cells; host or cells: Xenopus laevis oocytes, cRNA injection
As to the kind of experiment: cell-based. As to conditions: SEM.

Another assay concerns the target T2, human α7‐only‐nAChR (Homo sapiens, UniProt P36544).
T2 construct: expressed in transfected cells; host or cells: Xenopus laevis oocytes, cRNA injection
As to the kind of experiment: cell-based. The settings on record: SEM.

Usually Kd stands for the concentration at which binding is half-saturated. Read a high Kd as weaker binding.

T2 sequence (P36544 23-502 limits assumed): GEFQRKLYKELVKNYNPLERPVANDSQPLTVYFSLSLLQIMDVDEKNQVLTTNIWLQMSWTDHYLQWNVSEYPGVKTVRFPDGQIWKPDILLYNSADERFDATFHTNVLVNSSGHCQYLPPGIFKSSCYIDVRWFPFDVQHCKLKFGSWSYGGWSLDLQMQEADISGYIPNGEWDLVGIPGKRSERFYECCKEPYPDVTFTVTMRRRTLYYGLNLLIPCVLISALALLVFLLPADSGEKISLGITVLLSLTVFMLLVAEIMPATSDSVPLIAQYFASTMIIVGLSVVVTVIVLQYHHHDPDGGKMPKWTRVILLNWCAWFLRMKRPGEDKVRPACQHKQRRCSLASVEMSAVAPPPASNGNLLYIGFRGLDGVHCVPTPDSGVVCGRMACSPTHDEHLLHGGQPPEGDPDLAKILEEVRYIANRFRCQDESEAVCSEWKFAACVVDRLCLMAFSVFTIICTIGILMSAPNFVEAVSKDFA
T1 sequence (P36544 23-502 limits assumed): as above
T1 sequence (P17787 26-502 limits assumed): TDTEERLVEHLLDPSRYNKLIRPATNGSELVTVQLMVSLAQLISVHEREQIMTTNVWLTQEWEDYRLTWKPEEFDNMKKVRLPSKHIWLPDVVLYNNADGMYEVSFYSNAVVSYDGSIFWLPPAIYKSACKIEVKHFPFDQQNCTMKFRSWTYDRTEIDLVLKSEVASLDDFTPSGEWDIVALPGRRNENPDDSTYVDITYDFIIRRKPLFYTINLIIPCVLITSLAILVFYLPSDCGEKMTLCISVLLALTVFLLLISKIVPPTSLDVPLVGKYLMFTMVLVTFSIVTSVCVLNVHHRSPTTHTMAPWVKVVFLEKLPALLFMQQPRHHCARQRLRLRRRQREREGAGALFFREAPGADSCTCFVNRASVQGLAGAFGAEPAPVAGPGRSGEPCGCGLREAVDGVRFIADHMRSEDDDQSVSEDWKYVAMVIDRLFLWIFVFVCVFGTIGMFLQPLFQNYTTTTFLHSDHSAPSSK

On to `CC(C)C[C@@H]1NC(=O)[C@H](Cc2ccccc2)NC(=O)[C@@H]2CSSC[C@H](NC(=O)CN)C(=O)N[C@@H](CSSC[C@@H](C(N)=O)NC(=O)[C@H](Cc3ccc(O)cc3)NC(=O)[C@H](CC(=O)O)NC(=O)[C@@H]3CCCN3C(=O)[C@H](CC(N)=O)NC(=O)[C@H](CC(N)=O)NC1=O)C(=O)N[C@@H](CO)C(=O)N[C@@H](Cc1c[nH]cn1)C(=O)N1CCC[C@H]1C(=O)N1CCC[C@H]1C(=O)N2` [α‐CtxPnIC, α‐conotoxin PnIC], for which the figures for the equilibrium dissociation constant (Kd) at human α7β2‐nAChR (K d α7β2) and on human α7‐only‐nAChR were 3.3 ± 0.6 nM and 1.9 ± 0.4 nM, respectively. Also, the koff at human α7β2‐nAChR (read-out: k off α7β2) was 0.000119 s⁻¹; on human α7‐only‐nAChR (read-out: k off α7‐only), 0.000122 s⁻¹. In addition, the kon is 37200 M⁻¹ s⁻¹ on human α7β2‐nAChR (read-out: k on α7β2) and 68700 M⁻¹ s⁻¹ at human α7‐only‐nAChR (read-out: k on α7‐only).
